Assay results as given in patent US9937261B2 (LIPOMEDIX PHARMACEUTICALS LTD., priority 2014, dated 2018).

Test system: human cervical carcinoma (CaSki) tumor
Experiment: Anti-tumor effect of prodrug and radiation therapy, CaSki tumor-bearing mice (Example 2)
Conditions: 5 Gy irradiation in three fractions plus i.v. drug (prodrug 30 mg/kg, free mitomycin C 3.3 mg/kg), 21 days, FIG. 1
Protocol: Tumor volume was measured for 21 days and the change in tumor volume (ratio of tumor volume at day zero to tumor volume at indicated day post injection) as a function of days post injection of the chemotherapeutic agent was measured.
Cells from a human cervical carcinoma cell line, CaSki, were injected subcutaneously (1 million cells in 200 μL 1:1 RPMI and matrigel) into the left flank of 8 week old female Nu mice. Two weeks after inoculation, mice were treated three times with 5 Gy irradiation. […] Tumor volume was measured for 21 days in all test mice.

SMILES: CO[C@@]12[C@H](COC(N)=O)C3=C(C(=O)C(C)=C(N)C3=O)N1C[C@@H]1N[C@@H]12 [free mitomycin C, mitomycin C]
- tumor growth (change in tumor volume): little or no tumor growth
